This assay deals with biofilm / quorum quenching bacteria. Kind of assay: Biofilm MBBR reactor at 22° C., microbial community structure. The note with it: 100 μg/L. The method, then:
The sludge was discharged on the 12th day after the biofilm was successfully formed on the filler. The C4-HSL with a concentration of 100 μg/L was added to the influent. The rest steps were the same as those in Example 5.
The high concentration of C4-HSL allowed the quorum quenching bacteria to grow at a suitable temperature (22±1° C.), stimulating quorum quenching and inhibiting the attachment and growth of microorganisms to the filler.

On to `CCCC(=O)N[C@H]1CCOC1=O` [C4-HSL, N-butanoyl-L-homoserine lactone], for which the “colonization and growth of biofilm” value (22° C.) is listed as “inhibited”. Further, the “growth of quorum quenching bacteria” value (22° C. (Comparative Example 8)) was “promoted”.

Source of the values: patent US20240262727A1, “METHOD FOR IMPROVING BIOLOGICAL NITROGEN REMOVAL EFFECT OF LOW-TEMPERATURE SEWAGE” (Sichuan University, priority 2023, published 2024).
